Results reported in patent publication US8158829B2, “Organic sulfur compound and its use for controlling harmful arthropod” (Sumitomo Chemical Company, Limited, priority 2007, dated 2012).

Test system: Blattella germanica
Test: Test Example 3: filter paper with sucrose bait, Blattella germanica male imagoes
Type: in vivo
Details: 500 ppm, 0.7 ml on filter paper; 2 male imagoes; after 6 days
Procedure: Preparations of the present compounds (2), (3), (5) and (6) obtained according to Formulation Example 11 were diluted so that the active ingredient concentration was 500 ppm to obtain test solutions.
A filter paper having a diameter of 5.5 cm was spread on the bottom of a polyethylene cup having a diameter of 5.5 cm and 0.7 ml of the test solution was added dropwise onto the filter paper. As a bait 30 mg of sucrose was uniformly placed on the filter paper. Into the polyethylene cup, 2 male imagoes of Blattella germanica were released and the cup was sealed with a lid. After 6 days, the number of surviving Blattella germanica was examined and the death rate of the pest was calculated.

| SMILES | death rate of the pest [%] |
| --- | --- |
| COC(=O)C(Cl)(CCC(F)(F)C(F)(F)Br)S(=O)(=O)CCC(F)(F)F (stereo not shown) [present compound (5), methyl 6-bromo-2-chloro-5,5,6,6-tetrafluoro-2-(3,3,3-trifluoropropylsulfonyl)hexanoate] | 100 |
| COC(=O)C(Cl)(CCC(F)(Cl)C(F)(F)Cl)S(=O)(=O)CCC(F)(F)F (stereo not shown) [present compound (2), methyl 2,5,6-trichloro-5,6,6-trifluoro-2-(3,3,3-trifluoropropylsulfonyl)hexanoate] | 100 |
| NC(=O)C(Cl)(CCC(F)(F)C(F)(F)Br)S(=O)(=O)CCC(F)(F)F (stereo not shown) [present compound (6), 6-bromo-2-chloro-5,5,6,6-tetrafluoro-2-(3,3,3-trifluoropropylsulfonyl)hexanamide] | 100 |
| NC(=O)C(Cl)(CCC(F)(Cl)C(F)(F)Cl)S(=O)(=O)CCC(F)(F)F (stereo not shown) [present compound (3), 2,5,6-trichloro-5,6,6-trifluoro-2-(3,3,3-trifluoropropylsulfonyl)hexanamide] | 100 |
